According to US8937078B2, “Quinazolinones as prolyl hydroxylase inhibitors” (Janssen Pharmaceutica NV, priority 2009, dated 2015):
Where a name gives a salt, the structure may show the parent alone.

How the values were obtained:
[1] = test system: Hep-3B cells; test: Cellular assay: erythropoietin secretion in Hep-3B cells; format: cell-based, human; conditions: Homo sapiens, Hep3B, 100 μM compound, 24 hours, percent of EPO secretion relative to assay control compound 7-[(4-Chloro-phenyl)-(5-methyl-isoxazol-3-ylamino)-methyl]-quinolin-8-ol, read-out: Cellular % EPO Stimulation
Protocol: Hep-3B cells (ATCC, Manassas, Va.) were plated in 96-well plates at 20,000 cells per well in 100 μl of DMEM containing 10% fetal bovine serum, 1% non-essential amino acids, 50 IU/mL of penicillin and 50 μg/mL of streptomycin (all cell culture reagents from Invitrogen, Carlsbad, Calif.). Twenty-four hours after plating, compounds were added and incubated for an additional 24 hours. All compounds were tested under saturating conditions with final compound concentrations at 100 μM. Fifty microliters of the supernatant was then transferred to a human Hypoxia assay kit (Meso-Scale Discovery, Gaithersburg, Md.). Erythropoietin in the supernatant was detected according to the manufacturer's instructions as follows. EPO detection plates were blocked with 3% BSA in PBS overnight and 50 μl of the supernatant was incubated at room temperature in an orbital shaker for 2 h. Twenty-five microliters of 0.5 μg/ml anti-EPO detection antibody was added for 2 hours at room temperature in an orbital shaker. After 3 washes in PBS, 150 μl of 1× read buffer is added and the plate is then read on the MSD SECTOR instrument.

[2] = target: T1, human PHD2 (PHD2181-417) (Homo sapiens, UniProt Q9GZT9); test: PHD enzymatic assay ([14C]-succinic acid production); format: biochemical; conditions: PHD2181-417, HIF-1α peptide 10 μM, average of results; read-out: Enzyme pIC50 (converted)
T1 construct: Smt (SUMO) tag (cleaved yes); made in house; host or cells: E. coli BL21 (pBAD vector)
Protocol: Protein production was achieved by expression in BL21 cells grown in Terrific Broth containing 100 μg/ml ampicillin. Cell cultures were inoculated at 37° C. and grown to an OD600 of 0.8. Cultures were induced with 0.1% arabinose and grown overnight at 20° C. with continuous shaking at 225 rpm. Cells were then harvested by centrifugation and stored at −80° C. Cell pellets were suspended in Buffer A (50 mM Tris-HCl pH 7.2, 100 mM NaCl, 100 mM L-arginine, 1 mM TCEP, 0.05% (w/v) NP-40, 50 mM imidazole) followed by the addition of lysozyme and benzonase. Cells were lysed by sonication and the lysate was cleared by centrifugation (15,000 rpm, 90 min, 4° C.). The protein was purified by nickel affinity chromatography using a HisTrap Crude FF column (GE Healthcare). Samples were eluted in Buffer A with a 50-200 mM imidazole gradient. […] The flow-through was then dialyzed into 50 mM MES pH 6.0, 1 mM TCEP, 5 mM NaCl for ion exchange chromatography on a HiTrap SP Cation Exchange column (GE Healthcare). […] Fractions were pooled for further purification by size exclusion chromatography over a Superdex 75 Size Exclusion Column (GE Healthcare). Final protein was concentrated to 4 mg/ml and dialyzed in 10 mM PIPES pH 7.0, 100 mM NaCl, 0.5 mM TCEP.
(10 μM, California Peptide Research Inc., Napa, Calif.), and [5-^14C]-2-oxoglutaric acid (50 mCi/mmol, Moravek Chemicals, Brea, Calif.) in reaction buffer (40 mM Tris-HCl, pH 7.5, 0.4 mg/ml catalase, 0.5 mM DTT, 1 mM ascorbate) for 10 minutes. The reaction was stopped by addition of 50 μl of 70 mM H3PO4 and 50 μl of 500 mM NaH2PO4, pH3.2. Detection of [^14C]-succinic acid was achieved by separating from [5-^14C]-2-oxoglutaric acid by incubating the reaction mixture with 100 μl of 0.16 M DNP prepared in 30% perchloric acid. Next, 50 μl of unlabeled 20 mM 2-oxoglutaric acid/20 mM succinic acid, serving as carrier for the radioactivity, was added to the mixture, and was allowed to proceed for 30 minutes at room temperature. The reaction was then incubated with 50 μl of 1 M 2-oxoglutaric acid for 30 additional minutes at room temperature to precipitate the excess DNP. The reaction was then centrifuged at 2800×g for 10 minutes at room temperature to separate [^14C]-succinic acid in the supernatant from the precipitated [^14C]-dinitrophenylhydrazone. Fractions of the supernatant (400 μl) were counted using a beta counter (Beckman Coulter, Fullerton, Calif.).

T1 sequence (Q9GZT9 181-417): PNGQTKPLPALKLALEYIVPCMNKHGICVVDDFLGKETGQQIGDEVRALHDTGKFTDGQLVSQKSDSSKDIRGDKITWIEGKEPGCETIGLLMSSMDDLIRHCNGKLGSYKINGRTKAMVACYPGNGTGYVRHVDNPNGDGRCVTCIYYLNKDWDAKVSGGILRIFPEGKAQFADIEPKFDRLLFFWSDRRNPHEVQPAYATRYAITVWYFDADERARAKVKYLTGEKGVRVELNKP

| Compound | IC50 [2] | Emax at 100 µM [1] |
| --- | --- | --- |
| O=C(O)c1cnn(-c2nc3cc(Cl)ccc3c(=O)[nH]2)c1 [Example 1, 1-(7-Chloro-4-oxo-3,4-dihydro-quinazolin-2-yl)-1H-pyrazole-4-carboxylic acid] | 50.1 nM | 37% |
| O=C(O)c1cnn(-c2nc3cc(C(F)(F)F)ccc3c(=O)[nH]2)c1 [Example 2, 1-(7-Trifluoromethyl-4-oxo-3,4-dihydro-quinazolin-2-yl)-1H-pyrazole-4-carboxylic acid] | 158 nM | 21% |
| O=C(O)c1cnn(-c2nc3cc(Cl)c(Cl)cc3c(=O)[nH]2)c1 [Example 3, 1-(6,7-Dichloro-4-oxo-3,4-dihydro-quinazolin-2-yl)-1H-pyrazole-4-carboxylic acid] | 25.1 nM | 37% |
| O=C(O)c1cnn(-c2nc3ccc(F)cc3c(=O)[nH]2)c1 [Example 4, 1-(6-Fluoro-4-oxo-3,4-dihydro-quinazolin-2-yl)-1H-pyrazole-4-carboxylic acid] | 39.8 nM | 15% |
| O=C(O)c1cnn(-c2nc3cc(F)c(F)cc3c(=O)[nH]2)c1 [Example 5, 1-(6,7-Difluoro-4-oxo-3,4-dihydro-quinazolin-2-yl)-1H-pyrazole-4-carboxylic acid, trifluoroacetate salt] | 20 nM | 21% |
| O=C(O)c1cnn(-c2nc3cccc(Cl)c3c(=O)[nH]2)c1 [Example 6, 1-(5-Chloro-4-oxo-3,4-dihydro-quinazolin-2-yl)-1H-pyrazole-4-carboxylic acid] | 158 nM | 19% |
| COc1cccc2c(=O)[nH]c(-n3cc(C(=O)O)cn3)nc12 [Example 7, 1-(8-Methoxy-4-oxo-3,4-dihydro-quinazolin-2-yl)-1H-pyrazole-4-carboxylic acid] | 158 nM | 25% |
| Cc1ccc2nc(-n3cc(C(=O)O)cn3)[nH]c(=O)c2c1 [Example 8, 1-(6-Methyl-4-oxo-3,4-dihydro-quinazolin-2-yl)-1H-pyrazole-4-carboxylic acid] | 39.8 nM | 14% |
| Cc1cccc2c(=O)[nH]c(-n3cc(C(=O)O)cn3)nc12 [Example 9, 1-(8-Methyl-4-oxo-3,4-dihydro-quinazolin-2-yl)-1H-pyrazole-4-carboxylic acid] | 79.4 nM | 49% |
| Cc1ccc2c(=O)[nH]c(-n3cc(C(=O)O)cn3)nc2c1 [Example 10, 1-(7-Methyl-4-oxo-3,4-dihydro-quinazolin-2-yl)-1H-pyrazole-4-carboxylic acid] | 50.1 nM | 32% |
| O=C(O)c1cnn(-c2nc3c(Br)cccc3c(=O)[nH]2)c1 [Example 11, 1-(8-Bromo-4-oxo-3,4-dihydro-quinazolin-2-yl)-1H-pyrazole-4-carboxylic acid] | 158 nM | 40% |
| O=C(O)c1cnn(-c2nc3ccc(I)cc3c(=O)[nH]2)c1 [Example 12, 1-(6-Iodo-4-oxo-3,4-dihydro-quinazolin-2-yl)-1H-pyrazole-4-carboxylic acid] | 25.1 nM | 50% |
| O=C(O)c1cnn(-c2nc3ccc(Br)cc3c(=O)[nH]2)c1 [Example 13, 1-(6-Bromo-4-oxo-3,4-dihydro-quinazolin-2-yl)-1H-pyrazole-4-carboxylic acid] | 63.1 nM | 35% |
| O=C(O)c1cnn(-c2nc3c(Cl)cccc3c(=O)[nH]2)c1 [Example 14, 1-(8-Chloro-4-oxo-3,4-dihydro-quinazolin-2-yl)-1H-pyrazole-4-carboxylic acid] | 251 nM | 8% |
| O=C(O)c1cnn(-c2nc3ccc(OC(F)(F)F)cc3c(=O)[nH]2)c1 [Example 15, 1-(4-Oxo-6-trifluoromethoxy-3,4-dihydro-quinazolin-2-yl)-1H-pyrazole-4-carboxylic acid] | 15.8 nM | 19% |

Further lines, with some results ahead:

| IC50 [2] | Compound | Emax at 100 µM [1] |
| --- | --- | --- |
| 25.1 nM | COc1cccc(C2CCCN(c3cc4c(=O)[nH]c(-n5cc(C(=O)O)cn5)nc4cc3Cl)C2)c1 (racemic) [Example 86, (rac)-1-{7-Chloro-6-[3-(3-methoxy-phenyl)-piperidin-1-yl]-4-oxo-3,4-dihydro-quinazolin-2-yl}-1H-pyrazole-4-carboxylic acid] | 71% |
| 251 nM | O=C(O)c1cnn(-c2nc3c(C(F)(F)F)cccc3c(=O)[nH]2)c1 [Example 16, 1-(4-Oxo-8-trifluoromethyl-3,4-dihydro-quinazolin-2-yl)-1H-pyrazole-4-carboxylic acid] | 16% |
| 200 nM | COc1cc2nc(-n3cc(C(=O)O)cn3)[nH]c(=O)c2cc1OC [Example 17, 1-(6,7-Dimethoxy-4-oxo-3,4-dihydro-quinazolin-2-yl)-1H-pyrazole-4-carboxylic acid] | 33% |
| 316 nM | COc1cc2nc(-n3cc(C(=O)O)cn3)[nH]c(=O)c2c(OC)c1OC [Example 18, 1-(5,6,7-Trimethoxy-4-oxo-3,4-dihydro-quinazolin-2-yl)-1H-pyrazole-4-carboxylic acid] | 42% |
| 39.8 nM | CC(C)(C)c1ccc2nc(-n3cc(C(=O)O)cn3)[nH]c(=O)c2c1 [Example 19, 1-(6-tert-Butyl-4-oxo-3,4-dihydro-quinazolin-2-yl)-1H-pyrazole-4-carboxylic acid] | 45% |
| 25.1 nM | O=C(O)c1cnn(-c2nc3ccc(Oc4ccccc4)cc3c(=O)[nH]2)c1 [Example 20, 1-(4-Oxo-6-phenoxy-3,4-dihydro-quinazolin-2-yl)-1H-pyrazole-4-carboxylic acid] | 104% |
| 25.1 nM | O=C(O)c1cnn(-c2nc3ccc(C4CCCCC4)cc3c(=O)[nH]2)c1 [Example 21, 1-(6-Cyclohexyl-4-oxo-3,4-dihydro-quinazolin-2-yl)-1H-pyrazole-4-carboxylic acid] | 84% |
| 31.6 nM | O=C(O)c1cnn(-c2nc3cc(Cl)c(OC(F)(F)F)cc3c(=O)[nH]2)c1 [Example 22, 1-(7-Chloro-4-oxo-6-trifluoromethoxy-3,4-dihydro-quinazolin-2-yl)-1H-pyrazole-4-carboxylic acid] | 61% |
| 158 nM | O=C(O)c1cnn(-c2nc3ccc4[nH]ccc4c3c(=O)[nH]2)c1 [Example 23, 1-(1-Oxo-2,7-dihydro-1H-pyrrolo[3,2-f]quinazolin-3-yl)-1H-pyrazole-4-carboxylic acid] | 33% |
| 25.1 nM | CC(C)(C)c1ccc(Sc2cc3c(=O)nc(-n4cc(C(=O)O)cn4)[nH]c3cc2Cl)cc1 [Example 24, 1-[6-(4-tert-Butyl-phenylsulfanyl)-7-chloro-4-oxo-1,4-dihydro-quinazolin-2-yl]-1H-pyrazole-4-carboxylic acid] | 50% |
| 39.8 nM | O=C(O)c1cnn(-c2nc(=O)c3cc(Sc4ccccc4)c(Cl)cc3[nH]2)c1 [Example 25, 1-(7-Chloro-4-oxo-6-phenylsulfanyl-1,4-dihydro-quinazolin-2-yl)-1H-pyrazole-4-carboxylic acid] | 68% |
| 31.6 nM | COc1ccc(Sc2cc3c(=O)nc(-n4cc(C(=O)O)cn4)[nH]c3cc2Cl)cc1OC [Example 26, 1-[7-Chloro-6-(3,4-dimethoxy-phenylsulfanyl)-4-oxo-1,4-dihydro-quinazolin-2-yl]-1H-pyrazole-4-carboxylic acid] | 55% |
